Patent US7208505B2, “β3 adrenergic agonists” (Eli Lilly and Company, priority 2001, dated 2007)

Molecular target: T1, human β3 adrenergic receptor (Homo sapiens, UniProt P13945)
T1 construct: expressed in transfected cells
Assay: whole cell receptor coupled c-AMP assay (Emax relative to isoproterenol)
Format: cell-based
Conditions: % intrinsic activity relative to isoproterenol; transfected CHO cells
Description: The genes encoding the human β1-adrenergic receptor (Frielle et al., Proc. Natl. Acad. Sci., 84:7920–7924, 1987), the human β2-adrenergic receptor (Kobika et al., Proc. Natl. Acad. Sci., 84:46–50, 1987, Emorine et al., Proc. Natl. Acad. Sci., 84:6995–6999, 1987) and the human β3 adrenergic receptor (Granneman et al., Molecular Pharmacology, 44(2):264–70, 1993) are individually subcloned into a phd expression vector (Grinnell et al., Bio/Technology, 5:1189–1192, 1987) and transfected into the DXB-11 Chinese hamster ovary (CHO) cell line by calcium phosphate precipitation methodology. The stably transfected cells are grown to 95% confluency in 95% Dulbecco's modified Eagles Medium (DMEM), 5% fetal bovine serum and 0.01% proline. Media is removed and the cells are washed with phosphate buffered (pH 7.4) saline (without magnesium and calcium). Cells are then lifted using an enzyme free cell dissociation solution (Specialty Media, Lavallette, N.J.) and pelleted by centrifugation.
Cells from each of the above cell lines are resuspended and added (20,000/well) to a 96-well plate. Cells are incubated at 37° C. with representative compounds of the invention for 20 minutes in buffer (Hank's balanced salt solution, 10 mM HEPES, 0.1% BSA, 1 mM L-ascorbic acid, 0.2% dimethyl sulfoxide, 1 mM 3-isobutyl-1-methylxanthine, pH 7.4). After halting the incubation with quench buffer (50 mM Na Acetate, 0.25% Triton X-100, pH 5.8), the c-AMP level is quantified by scintillation proximity assay (SPA) using a modification of the commercially available c-AMP kit (Amersham, Arlington Heights, Ill.) with rabbit anti-cAMP antibody (ICN Biomedicals, Aurora, Ohio) for the kit.
Sigmoidal dose response curves, from the whole cell receptor coupled c-AMP assay are fit to a four parameter logistic equation using non linear regression: y=(a−d)/(1+(Dose/c)^b)+d where a and d are responses at zero and maximal dose, b is the slope factor and c is the EC50 as previously described (DeLean et al., Am. J. Physiol., 235, E97-E102, 1978). EC50 is assessed as the concentration producing 50% of the maximum response to each agonist.
Isoproterenol is accepted in the art as a non-selective β3 agonist and is widely used as a comparator in evaluating the activity of compounds. See Trends in Pharm. Sci., 15:3, 1994. The % intrinsic activity (Emax) of representative compounds of the invention is assessed relative to isoproterenol by the compound's maximal response divided by the isoproterenol maximal response times 100.

T1 sequence (P13945 whole entry): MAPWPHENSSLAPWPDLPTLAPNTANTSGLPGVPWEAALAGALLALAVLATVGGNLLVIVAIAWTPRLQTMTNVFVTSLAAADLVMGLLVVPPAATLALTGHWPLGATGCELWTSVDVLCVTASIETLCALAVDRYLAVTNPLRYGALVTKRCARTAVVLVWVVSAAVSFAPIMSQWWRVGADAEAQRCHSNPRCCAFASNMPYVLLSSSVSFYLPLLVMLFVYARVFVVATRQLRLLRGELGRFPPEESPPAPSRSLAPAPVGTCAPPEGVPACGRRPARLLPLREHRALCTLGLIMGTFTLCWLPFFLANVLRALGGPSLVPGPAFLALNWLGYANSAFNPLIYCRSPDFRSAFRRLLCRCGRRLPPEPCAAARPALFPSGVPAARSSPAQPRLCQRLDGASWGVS

`C[C@@H](Cc1c[nH]c2c(F)cc(F)cc12)NC[C@H](O)COc1ccccc1-c1cccs1` [Example 194] showed an Emax of 25.6%.

Same assay, conditions: % intrinsic activity: maximal response divided by isoproterenol maximal response times 100; transfected CHO cells; average of at least 3 runs

Point of comparison: `Cc1ccc(-c2ccccc2OC[C@@H](O)CNC(C)(C)Cc2c[nH]c3c(OCC#N)cccc23)s1.O=C(O)C(F)(F)F` [Example 14], “Emax (%) ± SEM” value 75.2 ± 3.0%. Against it:
- CC(C)(Cc1c[nH]c2c(NS(=O)(=O)c3ccccc3)cccc12)NC[C@H](O)COc1ccccc1-c1cccs1 [Example 25] — higher, 89.6 ± 10.9%
- CC(C)(Cc1c[nH]c2c(CCC(N)=O)cccc12)NC[C@H](O)COc1ccccc1-c1cccs1 [Example 140] — higher, 83.5 ± 2.7%
- Cc1csc(-c2ccccc2OC[C@@H](O)CNC(C)(C)Cc2c[nH]c3c(OCC#N)cccc23)c1.O=C(O)C(F)(F)F [Example 22] — lower, 66.0 ± 0.9%
- CC(C)(Cc1c[nH]c2c(-c3ccc(C(F)(F)F)cc3)cccc12)NC[C@H](O)COc1ccccc1-c1cccs1 [Example 104] — lower, 59.2 ± 1.0%
- CC(C)(Cc1c[nH]c2c(C=Cn3ccnc3)cccc12)NC[C@H](O)COc1ccccc1-c1cccs1 [Example 186] — lower, 66.5 ± 0.4%
- CC(C)(Cc1c[nH]c2c(-c3ccc(C(F)(F)F)cc3)cccc12)NC[C@H](O)COc1ccccc1-c1ccon1 [Example 105] — within error, 69.1 ± 3.8%
- CC(C)(Cc1c[nH]c2c(NS(C)(=O)=O)cccc12)NC[C@H](O)COc1ccccc1-c1cccs1 [Example 27] — within error, 81.0 ± 3.2%
- CC(C)(Cc1c[nH]c2c(OCC(=O)NS(C)(=O)=O)cccc12)NC[C@H](O)COc1ccccc1-c1cccs1 [Example 176] — within error, 79.0 ± 2.9%
- C[C@H](Cn1ccc2ccc(OCC#N)cc21)NC[C@H](O)COc1ccccc1-c1cccs1 [Example 67] — lower, 28.6 ± 3.4%
- CC(C)(Cc1c[nH]c2c(OCC(=O)O)cccc12)NC[C@H](O)COc1ccccc1-c1cccs1.Cl [Example 226] — within error, 70.3 ± 5.7%
- CC(C)(Cc1c[nH]c2ccccc12)NC[C@H](O)COc1ccccc1-c1ccon1 [Example 164] — lower, 53.9 ± 2.6%
- CC(C)(Cc1c[nH]c2c(F)cccc12)NC[C@H](O)COc1ccccc1-c1nccs1 [Example 171] — lower, 56.0 ± 1.5%
- CC(C)(Cc1c[nH]c2cc(F)ccc12)NC[C@H](O)COc1ccccc1-c1ccon1 [Example 172] — lower, 55.0 ± 1.1%
- CC(C)(Cc1c[nH]c2c(C(=O)O)cccc12)NC[C@H](O)COc1ccccc1-c1ccc(C#N)s1 [Example 90] — higher, 90.4 ± 3.8%
- CC(=O)c1ccc(-c2cccc3c(CC(C)(C)NC[C@H](O)COc4ccccc4-c4ccon4)c[nH]c23)cc1 [Example 49] — lower, 44.2 ± 1.2%
- CC(C)(Cc1c[nH]c2c(C=CC(N)=O)cccc12)NCC(O)COc1ccccc1-c1cccs1 (stereo not drawn) [Example 139] — higher, 86.5 ± 5.5%
- CC(C)(Cc1c[nH]c2ccccc12)NC[C@H](O)COc1ccccc1-c1cc(C#N)cs1.O=C(O)C(F)(F)F [Example 19] — lower, 49.1 ± 4.6%
- CC(C)(Cc1c[nH]c2c(CCC#N)cccc12)NC[C@H](O)COc1ccccc1-c1cccs1 [Example 144] — within error, 73.3 ± 5.9%
- CC(C)(Cc1c[nH]c2c(OCC#N)cccc12)NC[C@H](O)COc1ccccc1-c1cnco1.O=C(O)C(F)(F)F [Example 7] — lower, 58.4 ± 1.7%
- CC(C)(Cc1c[nH]c2c(NS(C)(=O)=O)cccc12)NC[C@H](O)COc1ccccc1-c1ccon1 [Example 28] — lower, 58.5 ± 0.5%
- CC(C)(Cc1c[nH]c2c(F)cccc12)NC[C@H](O)COc1ccccc1-c1ccon1 [Example 173] — lower, 50.2 ± 1.5%
- C[C@H](Cn1ccc2c(OCC#N)cccc21)NC[C@H](O)COc1ccccc1-c1ccns1 [Example 151] — lower, 52.4 ± 4.3%
- CC(C)(Cc1c[nH]c2ccccc12)NC[C@H](O)COc1ccc(F)cc1-c1ccno1 [Example 81] — lower, 35.1 ± 2.1%
- COC(=O)c1cccc2c(CC(C)(C)NC[C@H](O)COc3ccccc3-c3cccs3)c[nH]c12 [Example 76] — within error, 67.6 ± 5.2%
- COC(=O)c1ccc(-c2cccc3c(CC(C)(C)NC[C@H](O)COc4ccccc4-c4cccs4)c[nH]c23)s1 [Example 181] — lower, 39.6 ± 0.7%
- Cc1cc(-c2ccccc2OC[C@@H](O)CNC(C)(C)Cc2c[nH]c3ccccc23)cs1.O=C(O)C(F)(F)F [Example 17] — lower, 43.1 ± 3.0%
- CC(C)(Cc1c[nH]c2c(-c3cccc(C(F)(F)F)c3)cccc12)NC[C@H](O)COc1ccccc1-n1cccc1 [Example 39] — within error, 71.7 ± 3.0%
- CC(C)(Cc1c[nH]c2c(-c3ccc(C(F)(F)F)cc3C(F)(F)F)cccc12)NC[C@H](O)COc1ccccc1-c1cccs1 [Example 110] — within error, 72.7 ± 5.3%
- COC(=O)c1cccc2c1ccn2C[C@@H](C)NC[C@H](O)COc1ccccc1-c1cccs1 [Example 153] — lower, 45.2 ± 8.4%
- CC(C)(Cc1c[nH]c2cc(F)ccc12)NC[C@H](O)COc1ccccc1-c1cccs1 [Example 158] — within error, 69.6 ± 4.8%
- C[C@H](Cn1ccc2c(OCC#N)cccc21)NC[C@H](O)COc1ccccc1-c1ccon1 [Example 150] — lower, 46.6 ± 1.9%
- C[C@H](Cn1ccc2c(OCC#N)cccc21)NC[C@H](O)COc1ccccc1-c1cccs1 [Example 152] — lower, 63.1 ± 4.4%
- Cc1cc(-c2ccccc2OC[C@@H](O)CNC(C)(C)Cc2c[nH]c3c(OCC#N)cccc23)on1.O=C(O)C(F)(F)F [Example 10] — lower, 63.2 ± 5.3%
- CC(C)(Cc1c[nH]c2c(OCC#N)cccc12)NC[C@H](O)COc1ccccc1-c1ccc(C#N)s1.O=C(O)C(F)(F)F [Example 12] — within error, 77.7 ± 4.6%
- CC(=O)Nc1ccc(-c2cccc3c(CC(C)(C)NC[C@H](O)COc4ccccc4-c4ccon4)c[nH]c23)cc1 [Example 183] — lower, 47.7 ± 1.6%

Same assay, conditions: CHO, % intrinsic activity relative to isoproterenol; transfected CHO cells

`CC(C)(Cc1c[nH]c2c(OCC#N)cccc12)NC[C@H](O)COc1ccccc1-c1ccc(C#N)s1` [Example 202] gave an Emax of 85%.

Same assay, conditions: CHO, % intrinsic activity: maximal response divided by isoproterenol maximal response times 100; transfected CHO cells; average of at least 3 runs

Point of comparison: `CC(C)(Cc1c[nH]c2cc(CCc3nnn[nH]3)ccc12)NC[C@H](O)COc1ccccc1-c1cccs1` [Example 255], Emax 83.9 ± 3.2%. Against it:
- CC(C)(CC1=CCc2c(Oc3ccc(C(N)=O)cn3)cccc21)NC[C@H](O)COc1ccccc1-c1cccs1 [Example 219] — within error, 85.9 ± 9.4%
- CC(C)(Cc1c[nH]c2c(CCC(=O)O)cccc12)NC[C@H](O)COc1ccccc1-c1cccs1 [Example 228] — lower, 79.5 ± 0.6%
- CC(C)(Cc1c[nH]c2cc(/C=C/c3nnn[nH]3)ccc12)NC[C@H](O)COc1ccccc1-c1cccs1 [Example 252] — within error, 82.3 ± 4%
- CC(C)(Cc1c[nH]c2cccc(C(=O)O)c12)NC[C@H](O)COc1ccccc1-c1cccs1 [Example 238] — lower, < 10%
- CC(C)(Cc1c[nH]c2ccccc12)NC[C@H](O)COc1ccccc1-c1ccc(C(=O)O)s1 [Example 221] — lower, 74.6 ± 3.6%
- C[C@H](Cn1ccc2cc(C(=O)O)ccc21)NC[C@H](O)COc1ccccc1-c1cccs1 [Example 243] — lower, 48.4 ± 2.5%
- CC(C)(Cc1c[nH]c2c(CCc3cnccn3)cccc12)NC[C@H](O)COc1ccccc1-c1cccs1 [Example 253] — within error, 81.6 ± 4%
- CC(C)(Cc1c[nH]c2c(OCC(=O)O)cccc12)NC[C@H](O)COc1ccccc1-c1ccno1 [Example 233] — lower, 52.4 ± 6%
- CC(C)(Cc1c[nH]c2cc(OCC(=O)O)ccc12)NC[C@H](O)COc1ccccc1-c1cccs1 [Example 236] — within error, 88.4 ± 3.9%
